From paper PMC5938390, “Tachyplesin Causes Membrane Instability That Kills Multidrug-Resistant Bacteria by Inhibiting the 3-Ketoacyl Carrier Protein Reductase FabG” (Frontiers in Microbiology, 2018)
Positions of bridges follow the written chain, without caps; N, C: chain ends. Residues, ends and D or L forms follow the SMILES beside them.

Experiments:
K. pneumoniae 5 = assay: Transcriptome analysis (RNA sequencing, FPKM, DESeq); type: cell-based, Klebsiella pneumoniae; conditions: Kp; Ta 16 μg/ml, 30 min, 37°C
Description: (§1) The Vitek 32 system (bioMerieux, France) and 16S rDNA sequencing were used to verify the clinical isolates A. baumannii 1408, P. aeruginosa 1409, Klebsiella pneumoniae 5 and E. coli 513, which were grown overnight in Luria-Bertani (LB) medium at 37°C with constant shaking at 220 rpm to reach the middle of their logarithmic growth phase. […] After the addition of 2 volumes of RNAprotect Bacteria Reagent (QIAGEN) to stabilized RNA, samples were vortexed for 5 s, incubated for 5 min at room temperature (15–25°C) and collected by centrifugation at 4°C for 5 min at 4000 g.
(§2) RNA isolation and sequencing were performed by Novogene Bioinformatics Technology Co., Ltd. (Beijing, China) as previously described ([Liu B. et al., 2014]). Clean reads were mapped to the corresponding bacterial genomes using Bowtie 2 software ([Langmead and Salzberg, 2012]). Gene expression was calculated using the FPKM (expected number of fragments per kilobase of transcript sequence per millions of base pairs sequenced) method with HTSeq software (union model) ([Anders et al., 2015]). Differentially expressed genes were selected based on the DESeq R package with Padj values < 0.05 ([Anders and Huber, 2010]). KEGG pathway analysis was performed using KOBAS (2.0), and the corrected p value cut-off was set at 0.05 ([Li et al., 2015]).

E. coli 513 = assay: MIC against clinical isolate; type: cell-based, Escherichia coli
[1] = system: A549 (adenocarcinomic human alveolar basal epithelial cell line); conditions: concentration increased from 200 mg/L to 400 mg/L, XTT
Description: (§3) These studies were carried out as we previously reported with slight modifications and briefly introduced as follows ([Liu et al., 2017]). […] Cytotoxicity in different cell lines was assessed using the Cell Proliferation Kit II (XTT) (Roche), and cytotoxicity in hemocytes was evaluated by the increase in the absorbance at 540 nm after peptide incubation. Membrane rupture was indicated by the entrance of the DNA-binding fluorescent dye PI into MDR clinical isolates of P. aeruginosa strain 1409. Membrane translocation of N-terminal FITC-conjugated tachyplesin III (purity ≥ 95%, synthesized by GL Biochem Co., Ltd, Shanghai, China) into MDR clinical isolates of Acinetobacter baumannii strain 1408 were detected by confocal laser-scanning microscopy.
(§4) Cytotoxicity of tachyplesin III was tested by hemolysis and cell viability assays. (A) Tachyplesin III dissolved in 0.9% saline was added to mouse erythrocytes that were diluted with the same buffer. After 30 min of incubation at 37°C and then centrifugation at 1000 g for 15 min, supernatants were diluted 1:4 with 0.9% saline, and absorbance at 540 nm was tested. With 1% Triton X-100 (v/v) to determine 100% hemolysis and 0.9% saline as the negative control, the hemolysis rate was calculated as [(Absorbancesample^-Absorbancecontrol)/(Absorbance100%^-Absorbancecontrol)] × 100. Cytotoxicity was assessed using the Cell Proliferation Kit II (XTT) (Roche) for (B) L929 (mouse fibroblast cell line), (C) 293FT (human embryonic kidney cell line) and (D) A549 (adenocarcinomic human alveolar basal epithelial cell line) cells. Absorbance [A492-A690 nm] was used to quantify viable cells.

[2] = system: L929 (mouse fibroblast cell line); conditions: concentration increased from 50 mg/L to 100 mg/L, XTT
Description: as §3, §4

A. baumannii 1408 = assay: MIC against MDR clinical isolate; type: cell-based, Acinetobacter baumannii
[3] = system: Escherichia coli strain DH5α; conditions: 37°C, 2 mg/ml, stability judged by MIC against DH5α, tested during the first 6 h
Description: as §3
Tachyplesin III (2 mg/ml) was incubated in either sterile deionized water or mouse serum at 37°C for various lengths of time, aliquots were taken, and MICs against DH5α cells were tested. Stability of the MIC indicates the stability of tachyplesin III.

P. aeruginosa 1409 = type: cell-based, Pseudomonas aeruginosa; conditions: Pa; Ta 16 μg/ml, 30 min, 37°C
Description: as §1, §2

SMILES: CC[C@H](C)[C@@H]1NC(=O)CNC(=O)[C@H](CCCNC(=N)N)NC(=O)[C@H](Cc2ccc(O)cc2)NC(=O)[C@@H]2CSSC[C@H](NC1=O)C(=O)N[C@@H](Cc1ccc(O)cc1)C(=O)N[C@@H](CCCNC(=N)N)C(=O)N[C@@H](CCCCN)C(=O)N[C@H](C(=O)N[C@@H](CCCNC(=N)N)C(N)=O)CSSC[C@H](NC(=O)[C@H](Cc1c[nH]c3ccccc13)NC(=O)[C@@H](N)CCCCN)C(=O)N[C@@H](Cc1ccccc1)C(=O)N[C@@H](CCCNC(=N)N)C(=O)N[C@@H](C(C)C)C(=O)N2 [tachyplesin III] (H-KWCFRVCYRGICYRKCR-NH2; disulfide 3-16, 7-12 (inferred); N-terminus and C-terminus assumed)
- Fold change after Ta treatment, gene KPNJ2_01584 (Enoyl-CoA hydratase) (K. pneumoniae 5): 2
- Fold change after Ta treatment, gene KPNJ2_03426 (3-ketoacyl-acyl carrier protein reductase) (K. pneumoniae 5): 1.83
- 16 μg/ml tachyplesin III expressed as multiple of MIC (E. coli 513): 4 × MIC
- cell viability [1]: Dramatic decreases in viability
- cell viability [2]: declined sharply
- 16 μg/ml tachyplesin III expressed as multiple of MIC (A. baumannii 1408): 1 × MIC
- time stable in mouse serum [3]: at least 6 h
- Fold change after Ta treatment, gene PADK2_09275 (3-hydroxyacyl-CoA dehydrogenase) (P. aeruginosa 1409): 2.04
- Fold change after Ta treatment, gene PADK2_25405 (3-ketoacyl-acyl carrier protein reductase) (P. aeruginosa 1409): 2.71
